Measured values published in ChEMBL document CHEMBL3991601, “The target landscape of clinical kinase drugs” (Science, 2017).
Calls of active or inactive are those of the source. Rule as the data show it, for most assays here: actives have a measured Kd and inactives only a lower limit.

Legend:
[1] = target: Eukaryotic translation initiation factor 2-alpha kinase 1 (Homo sapiens, UniProt Q9BQI3)
[2] = target: T1, Septin-9 (Homo sapiens, UniProt Q9UHD8)
T1 sequence (Q9UHD8 whole entry): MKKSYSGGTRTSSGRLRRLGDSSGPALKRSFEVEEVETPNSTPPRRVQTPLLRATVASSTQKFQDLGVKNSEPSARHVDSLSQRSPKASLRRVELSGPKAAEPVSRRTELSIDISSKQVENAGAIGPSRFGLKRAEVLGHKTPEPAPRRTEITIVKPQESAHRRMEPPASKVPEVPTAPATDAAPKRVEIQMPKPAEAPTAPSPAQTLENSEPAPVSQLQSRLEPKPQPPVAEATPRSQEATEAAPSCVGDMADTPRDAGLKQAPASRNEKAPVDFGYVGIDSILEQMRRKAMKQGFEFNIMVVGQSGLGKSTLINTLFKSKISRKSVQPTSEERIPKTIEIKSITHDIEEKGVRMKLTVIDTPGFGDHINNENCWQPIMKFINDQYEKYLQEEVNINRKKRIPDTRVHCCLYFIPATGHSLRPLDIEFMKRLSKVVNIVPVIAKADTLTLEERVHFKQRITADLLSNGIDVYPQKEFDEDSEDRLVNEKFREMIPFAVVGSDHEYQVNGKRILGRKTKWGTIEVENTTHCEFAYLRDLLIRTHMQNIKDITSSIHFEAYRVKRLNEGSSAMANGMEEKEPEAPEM

[3] = target: Obg-like ATPase 1 (Homo sapiens, UniProt Q9NTK5)
Chain of Obg-like ATPase 1 (Q9NTK5 whole entry, looked up): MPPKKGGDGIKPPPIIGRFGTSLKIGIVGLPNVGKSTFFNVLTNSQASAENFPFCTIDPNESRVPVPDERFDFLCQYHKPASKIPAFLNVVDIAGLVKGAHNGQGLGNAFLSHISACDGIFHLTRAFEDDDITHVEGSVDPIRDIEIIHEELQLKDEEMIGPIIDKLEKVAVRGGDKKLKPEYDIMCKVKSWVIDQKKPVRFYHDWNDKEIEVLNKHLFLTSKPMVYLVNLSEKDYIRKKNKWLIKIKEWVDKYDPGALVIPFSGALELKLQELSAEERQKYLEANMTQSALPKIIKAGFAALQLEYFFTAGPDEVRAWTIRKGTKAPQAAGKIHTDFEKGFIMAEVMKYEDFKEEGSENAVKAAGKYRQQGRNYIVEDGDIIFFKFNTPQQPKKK

[4] = target: Calcium/calmodulin-dependent protein kinase type II subunit gamma (Homo sapiens, UniProt Q13555)
Chain of Calcium/calmodulin-dependent protein kinase type II subunit gamma (Q13555 whole entry): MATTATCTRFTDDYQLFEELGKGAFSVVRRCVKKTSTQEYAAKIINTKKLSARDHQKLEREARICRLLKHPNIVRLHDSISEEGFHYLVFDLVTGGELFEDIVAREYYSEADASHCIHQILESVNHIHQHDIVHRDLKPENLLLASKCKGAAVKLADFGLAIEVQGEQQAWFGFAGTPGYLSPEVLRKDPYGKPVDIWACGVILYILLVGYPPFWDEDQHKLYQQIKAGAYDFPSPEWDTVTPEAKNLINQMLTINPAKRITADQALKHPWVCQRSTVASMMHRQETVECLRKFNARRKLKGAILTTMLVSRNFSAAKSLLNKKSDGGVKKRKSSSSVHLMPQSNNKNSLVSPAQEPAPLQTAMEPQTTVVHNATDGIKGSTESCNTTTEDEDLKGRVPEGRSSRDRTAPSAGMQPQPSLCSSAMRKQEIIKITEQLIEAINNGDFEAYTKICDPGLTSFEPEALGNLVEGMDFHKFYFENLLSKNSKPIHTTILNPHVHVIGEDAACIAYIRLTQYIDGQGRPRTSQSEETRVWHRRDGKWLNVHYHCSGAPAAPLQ

[5] = target: Platelet-derived growth factor receptor beta (Homo sapiens, UniProt P09619)
Chain of Platelet-derived growth factor receptor beta (P09619 whole entry): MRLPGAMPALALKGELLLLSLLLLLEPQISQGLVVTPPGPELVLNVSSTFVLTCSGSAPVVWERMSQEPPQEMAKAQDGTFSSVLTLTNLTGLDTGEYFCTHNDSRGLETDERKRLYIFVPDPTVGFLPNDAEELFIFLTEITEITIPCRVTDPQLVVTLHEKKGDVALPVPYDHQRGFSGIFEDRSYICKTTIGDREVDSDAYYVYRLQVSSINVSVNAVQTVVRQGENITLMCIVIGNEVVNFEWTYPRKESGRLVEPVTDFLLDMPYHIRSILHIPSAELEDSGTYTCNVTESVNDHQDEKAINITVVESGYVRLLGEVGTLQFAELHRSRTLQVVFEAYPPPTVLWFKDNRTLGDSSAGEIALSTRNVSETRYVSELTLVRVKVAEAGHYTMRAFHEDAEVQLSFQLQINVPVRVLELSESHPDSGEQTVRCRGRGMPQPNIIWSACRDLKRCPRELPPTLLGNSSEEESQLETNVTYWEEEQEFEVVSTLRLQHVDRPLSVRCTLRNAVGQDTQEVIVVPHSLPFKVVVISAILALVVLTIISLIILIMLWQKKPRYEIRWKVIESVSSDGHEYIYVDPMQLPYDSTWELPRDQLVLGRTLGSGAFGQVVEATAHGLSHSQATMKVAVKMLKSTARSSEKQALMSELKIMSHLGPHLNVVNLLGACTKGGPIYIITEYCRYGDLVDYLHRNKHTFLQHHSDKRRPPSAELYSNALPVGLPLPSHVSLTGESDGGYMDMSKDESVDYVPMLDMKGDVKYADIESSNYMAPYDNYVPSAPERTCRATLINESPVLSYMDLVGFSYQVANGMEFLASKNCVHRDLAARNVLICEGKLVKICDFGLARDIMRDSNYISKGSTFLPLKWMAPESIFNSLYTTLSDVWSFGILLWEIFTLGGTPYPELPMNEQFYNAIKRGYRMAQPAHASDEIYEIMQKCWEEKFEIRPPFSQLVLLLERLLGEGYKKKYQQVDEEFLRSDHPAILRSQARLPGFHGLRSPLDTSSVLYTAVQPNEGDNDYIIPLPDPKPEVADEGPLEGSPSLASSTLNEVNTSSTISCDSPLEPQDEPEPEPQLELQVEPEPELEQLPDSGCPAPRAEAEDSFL

[6] = target: T2, Ephrin type-B receptor 4 (Homo sapiens, UniProt P54760)
T2 sequence (P54760 whole entry): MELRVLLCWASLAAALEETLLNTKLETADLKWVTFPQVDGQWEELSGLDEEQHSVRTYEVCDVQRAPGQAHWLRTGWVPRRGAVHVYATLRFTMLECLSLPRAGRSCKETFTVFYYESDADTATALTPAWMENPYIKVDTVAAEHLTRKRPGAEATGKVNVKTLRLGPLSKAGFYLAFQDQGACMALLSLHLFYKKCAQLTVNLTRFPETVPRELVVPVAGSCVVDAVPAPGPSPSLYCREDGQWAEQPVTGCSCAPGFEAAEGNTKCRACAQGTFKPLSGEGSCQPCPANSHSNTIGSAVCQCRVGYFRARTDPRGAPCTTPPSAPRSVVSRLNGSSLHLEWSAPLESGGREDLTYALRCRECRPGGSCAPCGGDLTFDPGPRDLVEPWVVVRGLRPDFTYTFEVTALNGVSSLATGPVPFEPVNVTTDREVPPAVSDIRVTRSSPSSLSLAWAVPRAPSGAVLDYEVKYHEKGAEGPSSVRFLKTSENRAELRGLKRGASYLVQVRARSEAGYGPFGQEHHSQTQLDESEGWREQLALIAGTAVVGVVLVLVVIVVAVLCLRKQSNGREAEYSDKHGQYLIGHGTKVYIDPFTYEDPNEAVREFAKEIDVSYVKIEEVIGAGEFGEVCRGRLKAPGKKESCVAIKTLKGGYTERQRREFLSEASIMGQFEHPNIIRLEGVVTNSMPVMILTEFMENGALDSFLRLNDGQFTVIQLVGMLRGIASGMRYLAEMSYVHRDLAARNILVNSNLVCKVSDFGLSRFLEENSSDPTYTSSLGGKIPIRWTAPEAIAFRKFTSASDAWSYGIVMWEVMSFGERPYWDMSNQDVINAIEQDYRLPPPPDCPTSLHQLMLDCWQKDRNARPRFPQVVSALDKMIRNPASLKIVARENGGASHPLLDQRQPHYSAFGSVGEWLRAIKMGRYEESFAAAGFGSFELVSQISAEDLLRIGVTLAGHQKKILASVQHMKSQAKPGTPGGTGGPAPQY

[7] = target: Cyclin-dependent kinase 5 (Homo sapiens, UniProt Q00535)
Chain of Cyclin-dependent kinase 5 (Q00535 whole entry): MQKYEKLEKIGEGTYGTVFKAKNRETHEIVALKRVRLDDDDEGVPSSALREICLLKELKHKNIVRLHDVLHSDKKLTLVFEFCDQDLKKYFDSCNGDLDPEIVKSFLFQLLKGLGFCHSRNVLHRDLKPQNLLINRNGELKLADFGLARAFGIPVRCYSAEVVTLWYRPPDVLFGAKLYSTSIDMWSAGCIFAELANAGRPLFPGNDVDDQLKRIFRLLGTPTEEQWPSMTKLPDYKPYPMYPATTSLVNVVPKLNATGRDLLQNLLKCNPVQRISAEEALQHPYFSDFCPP
Also: in the data inactive means no Kd found up to 30 µM.

Chain of Eukaryotic translation initiation factor 2-alpha kinase 1 (Q9BQI3 whole entry): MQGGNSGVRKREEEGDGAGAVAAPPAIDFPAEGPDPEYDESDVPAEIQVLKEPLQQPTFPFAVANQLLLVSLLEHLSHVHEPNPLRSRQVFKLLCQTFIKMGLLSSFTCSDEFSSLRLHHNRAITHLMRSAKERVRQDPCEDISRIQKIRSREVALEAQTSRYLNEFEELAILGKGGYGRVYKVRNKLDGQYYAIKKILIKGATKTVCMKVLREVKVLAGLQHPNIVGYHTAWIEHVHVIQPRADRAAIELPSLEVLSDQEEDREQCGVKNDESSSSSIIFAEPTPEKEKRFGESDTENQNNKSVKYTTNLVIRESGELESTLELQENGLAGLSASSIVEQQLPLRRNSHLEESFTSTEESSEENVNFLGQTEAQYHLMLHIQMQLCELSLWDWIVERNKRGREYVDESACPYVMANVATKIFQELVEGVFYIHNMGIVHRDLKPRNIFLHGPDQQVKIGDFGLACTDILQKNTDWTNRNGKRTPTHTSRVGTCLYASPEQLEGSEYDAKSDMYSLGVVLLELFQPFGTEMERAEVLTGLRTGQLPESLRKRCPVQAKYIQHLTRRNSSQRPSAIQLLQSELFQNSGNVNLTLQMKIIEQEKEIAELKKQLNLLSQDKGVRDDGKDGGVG

Row | Compound | Kd [1] | Kd [2] | Kd [3] | Kd [4] | Kd [5] | Kd [6] | Kd [7]
1 | COCCN1CCN(Cc2ccc(-c3n[nH]c4c3C(=O)c3c(NC(=O)NN5CCOCC5)cccc3-4)cc2)CC1 [RGB-286638] | 3.8 µM (active) | > 30 µM (inactive) | > 30 µM (inactive) | > 30 µM (inactive) | 1.36 µM | > 30 µM (inactive) | 0.318 µM (active)
2 | C=CC(=O)Nc1cccc(Nc2nc(Nc3ccc(N4CCN(C(C)=O)CC4)cc3OC)ncc2C(F)(F)F)c1 [ROCILETINIB] | > 30 µM (inactive) | > 30 µM (inactive) | > 30 µM (inactive) | > 30 µM (inactive) | > 30 µM (inactive) | > 30 µM (inactive) | > 30 µM (inactive)
3 | CNC(=O)c1cc(COc2nnc(Nc3ccc(Cl)cc3)c3ccoc23)ccn1 [TELATINIB] | > 30 µM (inactive) | > 30 µM (inactive) | > 30 µM (inactive) | > 30 µM (inactive) | 0.555 µM (active) | > 30 µM (inactive) | > 30 µM (inactive)
4 | Cc1cc(-c2cc(OC(=O)c3ccccc3)ccc2Cl)cc2nnc(Nc3ccc(OCCN4CCCC4)cc3)nc12 [TG100-801] | > 30 µM (inactive) | > 30 µM (inactive) | > 30 µM (inactive) | > 30 µM (inactive) | 0.109 µM (active) | 0.711 µM (active) | > 30 µM (inactive)
5 | C[C@@H]1COC(Nc2ccc3ncnc(Nc4ccc(OCc5nccs5)c(Cl)c4)c3c2)=N1 [VARLITINIB] | > 30 µM (inactive) | > 30 µM (inactive) | > 30 µM (inactive) | > 30 µM (inactive) | > 30 µM (inactive) | > 30 µM (inactive) | > 30 µM (inactive)
6 | CNC(=O)c1cccc(-c2ccc3c(N4CCOC[C@@H]4C)nc(N4CCOC[C@@H]4C)nc3n2)c1 [VISTUSERTIB] | > 30 µM (inactive) | > 30 µM (inactive) | > 30 µM (inactive) | > 30 µM (inactive) | > 30 µM (inactive) | > 30 µM (inactive) | > 30 µM (inactive)
7 | COc1cc2ncnc(Nc3ccc(O)cc3)c2cc1OC [WHI-P131] | > 30 µM (inactive) | > 30 µM (inactive) | > 30 µM (inactive) | > 30 µM (inactive) | > 30 µM (inactive) | > 30 µM (inactive) | > 30 µM (inactive)

Other lines, results leading:

Row | Kd [1] | Kd [2] | Kd [3] | Kd [4] | Kd [5] | Kd [6] | Kd [7] | Compound
8 | > 30 µM (inactive) | > 30 µM (inactive) | > 30 µM (inactive) | > 30 µM (inactive) | > 30 µM (inactive) | > 30 µM (inactive) | > 30 µM (inactive) | Cn1c(=O)c(F)c(Nc2ccc(I)cc2F)c2c(=O)n(C[C@@H](O)CO)cnc21 [TAK-733]
9 | > 30 µM (inactive) | > 30 µM (inactive) | > 30 µM (inactive) | > 30 µM (inactive) | > 30 µM (inactive) | > 30 µM (inactive) | > 30 µM (inactive) | NC(=O)c1ccc(N(C(N)=O)c2c(F)cccc2F)nc1-c1ccc(F)cc1F [VX-702]
